Results on four compounds are retold here after ChEMBL document CHEMBL2384979, “Synthesis of the (1→6)-linked thiodisaccharide of galactofuranose: inhibitory activity against a β-galactofuranosidase” (Bioorg Med Chem, 2013).

Assay [1] in a line: Inhibition of Penicillium fellutanum exo-beta-galactofuranosidase assessed as 4-Nitrophenyl beta-D-galactofuranoside conversion to 4-nitrophenol after 1.5 hrs by spectrophotometric analysis.
A short description of assay [2]: Competitive inhibition of Penicillium fellutanum exo-beta-galactofuranosidase assessed as 4-Nitrophenyl beta-D-galactofuranoside conversion to 4-nitrophenol after 1.5 hrs by Lineweaver-Burk plot analysis.

On to `Nc1ccc(S[C@@H]2O[C@@H]([C@H](O)CO)[C@H](O)[C@H]2O)cc1`, for which the IC50 in assay [1] came to 80 µM. Take `O=[N+]([O-])c1ccc(S[C@@H]2O[C@@H]([C@H](O)CO)[C@H](O)[C@H]2O)cc1`: the IC50 in assay [1] was determined as 600 µM.

Regarding `CO[C@@H]1O[C@@H]([C@H](O)CS[C@@H]2O[C@@H]([C@H](O)CO)[C@H](O)[C@H]2O)[C@H](O)[C@H]1O`, the Ki in assay [2] turned out to be 3620 µM.

Turning to `O=C1O[C@@H]([C@H](O)CO)[C@H](O)[C@H]1O`, the inhibitory constant (Ki) in assay [2] came to 100 µM.

For orientation: IC50 means the concentration needed to halve the response being measured. By Ki is commonly meant the dissociation constant of the complex between target and ligand, obtained from inhibition or displacement.
